This is an account of results in patent US10125100B2, “Kinase inhibitors” (Respivert Limited, priority 2014, dated 2018).

Molecules are shown by their SMILES.

The test system of one series is Jurkat cells. The series can be described thus: (r) Cell cytotoxicity assay. In kind it is cell-based, human. The note with it: 24 hours. In outline:
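Viability read by flow cytometry as the fraction of propidium iodide-negative cells (7.5 μg/mL PI, 15 min), relative to 1.0% DMSO control. Beforehand, 1×10^5 Jurkat cells in RPMI/10% FBS were treated 24 h at 37° C., 5% CO2 with test compound at final 20, 5 or 1 μg/mL.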

The next series has as its system mitosis in PBMCs. The series can be described thus: (g) Cell mitosis assay. Conditions: Homo sapiens, PBMC, 5 μg/mL. It counts as cell-based. The protocol: Peripheral blood mononucleocytes (PBMCs) from healthy subjects are separated from whole blood (Quintiles, London, UK) using a density gradient (Histopaque®-1077, Sigma-Aldrich, Poole, UK). The PBMCs (3 million cells per sample) are subsequently treated with 2% PHA (phytohaemagglutinin, Sigma-Aldrich, Poole, UK) for 48 hr, followed by a 20 hr exposure to varying concentrations of test compounds. At 2 hr before collection, PBMCs are treated with demecolcine (0.1 μg/mL; Invitrogen, Paisley, UK) to arrest cells in metaphase. To observe mitotic cells, PBMCs are permeabilized and fixed by adding Intraprep (50 μL; Beckman Coulter, France), and stained with anti-phospho-histone 3 ([…]; #9701; Cell Signalling, Danvers, Mass.) and propidium iodide (1 mg/mL; Sigma-Aldrich, Poole, UK) as previously described (Muehlbauer P. A. and Schuler M. J., Mutation Research, 2003, 537:117-130). Fluorescence is observed using an ATTUNE flow cytometer (Invitrogen, Paisley, UK), gating for lymphocytes.

The next series has as its target c-Src (Homo sapiens (Human), UniProt P12931). The series can be described thus: c-Src enzyme inhibition, Z-LYTE FRET. It counts as biochemical. In outline: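 Z-LYTE FRET peptide phosphorylation read as donor coumarin over acceptor fluorescein ratio after 1 hr protease development. Compounds (1–0.001 μg/mL) preincubated 2 hr at RT with enzyme; ATP solutions 60 μM for Syk, 800 μM for c-Src; kinase reaction 1 hr.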

In another series the target is p38 MAPKα (MAPK14) (Homo sapiens (Human), UniProt Q16539). The series can be described thus: p38 MAPKα enzyme inhibition (Method 2), Z-LYTE FRET. It counts as biochemical. In outline: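 Enzyme (200 ng/mL solution) was preincubated 2 h at RT with compound solutions of 1, 0.1, 0.01 or 0.001 μg/mL, and inhibition was read indirectly via MAPKAP-K2 activation/phosphorylation. After a 1 h RT reaction and 1 h protease development, phosphorylation was derived from the coumarin/fluorescein emission ratio.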

The next series deals with Syk (Homo sapiens (Human), UniProt P43405). The series can be described thus: Syk enzyme inhibition, Z-LYTE FRET. In kind it is biochemical. In outline: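 Syk or c-Src enzyme (3000 or 2000 ng/mL solutions) was preincubated 2 h at RT with compound solutions at 1, 0.1, 0.01 or 0.001 µg/mL. Z-LYTE FRET peptide (8 µM solution) and ATP (800 µM solution for c-Src, 60 µM for Syk) were then added for 1 h, followed by protease development for 1 h. Phosphorylation was read as the coumarin/fluorescein emission ratio.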

Usually inhibition stands for how much of the control response was suppressed. Read a low inhibition as little suppression. One may read the IC50 as the concentration that inhibits the measured activity by half. Low readings indicate greater potency, high ones weaker potency.

Sequence of p38 MAPKα (MAPK14) (Q16539 whole entry): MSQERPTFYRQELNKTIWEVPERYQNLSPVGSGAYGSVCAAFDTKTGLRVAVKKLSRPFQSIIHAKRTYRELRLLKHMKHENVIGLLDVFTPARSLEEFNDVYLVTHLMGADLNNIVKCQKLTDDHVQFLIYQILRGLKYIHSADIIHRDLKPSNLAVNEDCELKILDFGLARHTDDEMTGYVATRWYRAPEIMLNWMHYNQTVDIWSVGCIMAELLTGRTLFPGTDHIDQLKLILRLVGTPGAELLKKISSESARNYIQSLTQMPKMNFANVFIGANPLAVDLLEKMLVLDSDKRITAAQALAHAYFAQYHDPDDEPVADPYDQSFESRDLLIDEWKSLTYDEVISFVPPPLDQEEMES
Sequence of c-Src (P12931 whole entry, looked up): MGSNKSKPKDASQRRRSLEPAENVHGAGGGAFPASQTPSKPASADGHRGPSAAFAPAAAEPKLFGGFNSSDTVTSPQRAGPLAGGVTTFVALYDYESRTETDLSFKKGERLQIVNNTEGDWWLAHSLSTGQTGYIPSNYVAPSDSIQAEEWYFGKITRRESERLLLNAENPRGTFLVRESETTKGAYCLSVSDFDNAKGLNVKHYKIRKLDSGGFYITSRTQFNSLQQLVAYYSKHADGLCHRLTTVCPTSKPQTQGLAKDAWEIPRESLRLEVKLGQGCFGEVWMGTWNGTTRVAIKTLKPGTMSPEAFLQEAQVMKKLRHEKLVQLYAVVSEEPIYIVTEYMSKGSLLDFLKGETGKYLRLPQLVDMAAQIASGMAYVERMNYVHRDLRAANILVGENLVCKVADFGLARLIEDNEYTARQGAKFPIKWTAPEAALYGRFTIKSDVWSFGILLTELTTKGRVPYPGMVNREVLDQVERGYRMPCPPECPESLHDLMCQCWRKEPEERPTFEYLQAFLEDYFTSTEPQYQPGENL

Take `COc1cc(Nc2cc(Oc3ccc(NC(=O)Nc4cc(C(C)(C)C)cc(NS(C)(=O)=O)c4OC)c4ccccc34)ccn2)ccc1C(=O)NCCC1CCN(C)CC1` [Example 14, 4-[[4-[[4-[[5-tert-Butyl-3-(methanesulfonamido)-2-methoxy-phenyl]carbamoylamino]-1-naphthyl]oxy]-2-pyridyl]amino]-2-methoxy-N-[2-(1-methyl-4-piperidyl)ethyl]benzamide]: in the series with Jurkat cells, the “% Viability at 1 μg/mL” value is given as 101.9%, the “% Viability at 5 μg/mL” value came to 98.8% and the “% Viability at 20 μg/mL” value stood at 0.7%. The inhibition at 5 µg/mL in the series on mitosis in PBMCs was found to be 60.1%. Also, the IC50 at c-Src worked out at 19 nM. This compound displayed an IC50 against p38 MAPKα (MAPK14) of 10 nM. The same compound returned an IC50 against Syk of 92 nM.

For `COc1cc(Nc2cc(Oc3ccc(NC(=O)Nc4cc(C(C)(C)C)cc(NS(C)(=O)=O)c4OC)c4ccccc34)ccn2)ccc1C(=O)NCCOCCOCCO` [Example 16, 4-[[4-[[4-[[5-tert-Butyl-3-(methanesulfonamido)-2-methoxy-phenyl]carbamoylamino]-1-naphthyl]oxy]-2-pyridyl]amino]-N-[2-[2-(2-hydroxyethoxy)ethoxy]ethyl]-2-methoxy-benzamide], in the series on Jurkat cells, the “% Viability at 1 μg/mL” value was 90.1%, the “% Viability at 5 μg/mL” value is recorded as 52.5% and the “% Viability at 20 μg/mL” value was determined as 19.1%. Further, at 5 µg/mL the inhibition in the series with mitosis in PBMCs was 50.1%. On c-Src, the IC50 was 22 nM. At p38 MAPKα (MAPK14), this compound gave a half-inhibitory concentration (IC50) of 34 nM. Also, 107 nM corresponded to half-maximal inhibition on Syk (IC50).

As to `C#Cc1cc(Nc2cc(Oc3ccc(NC(=O)Nc4cc(C(C)(C)C)cc(NS(C)(=O)=O)c4OC)c4ccccc34)ccn2)ccc1C(=O)NCCN1CCOCC1` [Example 15, 4-[[4-[[4-[[5-tert-Butyl-3-(methanesulfonamido)-2-methoxy-phenyl]carbamoylamino]-1-naphthyl]oxy]-2-pyridyl]amino]-2-ethynyl-N-(2-morpholinoethyl)benzamide], in the series with Jurkat cells, the “% Viability at 1 μg/mL” value is 99.5%, the “% Viability at 5 μg/mL” value is given as 75.0% and the “% Viability at 20 μg/mL” value was 74.5%. This compound also returned an inhibition at 5 µg/mL in the series on mitosis in PBMCs of 62.3%. In addition, it took 43 nM to reach half-maximal inhibition against c-Src (IC50). It took 64 nM to reach half-maximal inhibition at p38 MAPKα (MAPK14) (IC50). Further, the IC50 on Syk is 163 nM.

Take `COc1cc(Nc2cc(Oc3ccc(NC(=O)Nc4cc(C(C)(C)C)cc(NS(C)(=O)=O)c4OC)c4ccccc34)ccn2)cc(OC)c1C(=O)NCCN1CCOCC1` [17(ae), 4-[[4-[[4-[[5-tert-butyl-3-(methanesulfonamido)-2-methoxy-phenyl]carbamoylamino]-1-naphthyl]oxy]-2-pyridyl]amino]-2,6-dimethoxy-N-(2-morpholinoethyl)benzamide]: in the series with Jurkat cells, the “% Viability at 1 μg/mL” value stood at 93.1%. Further, the “% Viability at 5 μg/mL” value with Jurkat cells amounted to 98.5%. In the series with Jurkat cells, the “% Viability at 20 μg/mL” value was determined as 92.9%. Moreover, at 5 µg/mL the inhibition in the series with mitosis in PBMCs was 30.6%. Also, the IC50 amounted to 31 nM on c-Src, 10 nM against p38 MAPKα (MAPK14) and 112 nM against Syk.

With `COc1cc(Nc2cc(Oc3ccc(NC(=O)Nc4cc(C(C)(C)C)cc(NS(C)(=O)=O)c4OC)c4ccccc34)ccn2)ccc1C(=O)NCCCN1CCOCC1` [17(b), 4-[[4-[[4-[[5-tert-butyl-3-(methanesulfonamido)-2-methoxy-phenyl]carbamoylamino]-1-naphthyl]oxy]-2-pyridyl]amino]-2-methoxy-N-(3-morpholinopropyl)benzamide], in the series with Jurkat cells, the “% Viability at 1 μg/mL” value is on record as 102.8%, the “% Viability at 5 μg/mL” value is 93.8% and the “% Viability at 20 μg/mL” value worked out at 79.3%. Also, in the series on mitosis in PBMCs, the inhibition at 5 µg/mL was determined as 58.9%. Besides, on c-Src, the IC50 turned out to be 20 nM. On p38 MAPKα (MAPK14), this compound came in with an IC50 of 52 nM. This compound also yielded an IC50 against Syk of 98 nM.

For the compound `COc1cc(Nc2cc(Oc3ccc(NC(=O)Nc4cc(C(C)(C)C)cc(NS(C)(=O)=O)c4OC)c4ccccc34)ccn2)ccc1C(=O)NCCN1CCSCC1` [17(l), 4-[[4-[[4-[[5-tert-butyl-3-(methanesulfonamido)-2-methoxy-phenyl]carbamoylamino]-1-naphthyl]oxy]-2-pyridyl]amino]-2-methoxy-N-(2-thiomorpholinoethyl)benzamide], in the series with Jurkat cells, the “% Viability at 1 μg/mL” value is listed as 102.8%, the “% Viability at 5 μg/mL” value turned out to be 102.7% and the “% Viability at 20 μg/mL” value was 102.9%. The inhibition at 5 µg/mL in the series on mitosis in PBMCs stood at 24.9%. The IC50 against c-Src is 116 nM. At p38 MAPKα (MAPK14), this compound showed an IC50 of 223 nM. The same compound showed an IC50 on Syk of 389 nM.

Turning to `COc1cc(Nc2cc(Oc3ccc(NC(=O)Nc4cc(C(C)(C)C)cc(NS(C)(=O)=O)c4OC)c4ccccc34)ccn2)ccc1C(=O)NCCN1CCCCC1` [17(p), 4-[[4-[[4-[[5-tert-butyl-3-(methanesulfonamido)-2-methoxy-phenyl]carbamoylamino]-1-naphthyl]oxy]-2-pyridyl]amino]-2-methoxy-N-[2-(1-piperidyl)ethyl]benzamide], the “% Viability at 1 μg/mL” value in the series on Jurkat cells was found to be 102.1%. The “% Viability at 5 μg/mL” value with Jurkat cells was determined as 49.9%. Moreover, the “% Viability at 20 μg/mL” value in the series with Jurkat cells is given as 1.5%. This compound registered an inhibition at 5 µg/mL with mitosis in PBMCs of 92%. In addition, the results for the IC50 against c-Src, against p38 MAPKα (MAPK14) and against Syk were 21 nM, 20 nM and 172 nM, respectively.

Turning to `COCCOCCOCCS(=O)(=O)c1ccc(Nc2cc(Oc3ccc(NC(=O)Nc4cc(C(C)(C)C)cc(NS(C)(=O)=O)c4OC)c4ccccc34)ccn2)cc1OC` [Example 12, 1-[5-tert-Butyl-3-(methanesulfonamido)-2-methoxy-phenyl]-3-[4-[[2-[3-methoxy-4-[2-[2-(2-methoxyethoxy)ethoxy]ethylsulfonyl]anilino]-4-pyridyl]oxy]-1-naphthyl]urea], in the series with Jurkat cells, the “% Viability at 1 μg/mL” value was determined as 74.5%, the “% Viability at 5 μg/mL” value worked out at 81.8% and the “% Viability at 20 μg/mL” value is 82.9%. The inhibition at 5 µg/mL in the series on mitosis in PBMCs came out at 22.1%. Further, at c-Src, the IC50 was determined as 209 nM. Moreover, the IC50 on p38 MAPKα (MAPK14) was 23 nM. Also, the IC50 against Syk worked out at 831 nM.
